Results published in US20060270727A1, “Small molecule therapeutics and uses therefor” (priority 2005, published 2006).
Where two headings read alike, the source gives them in different places.

Tests used:
[1] = target: GAA·TTC duplex repeats in the frataxin gene; radiolabeled PCR product containing a (GAA)6 sequence; experiment: Quantitative DNase I footprinting on (GAA)6 DNA; assay type: binding
Description: Targeting GAA Repeat DNA with Polyamides. β-Alanine linked polyamides FA1-FA6 were synthesized (see Example 6) with sequence, theoretical DNA binding site, theoretical DNA binding site SEQ ID NO: ______) and binding affinity as shown in Table 1. […] Those of skill in the art will recognize that this value may be an underestimation of the affinity of this molecule for GAA repeat DNA since the KD measurements are limited by a minimum DNA concentration of ˜2 pM in the binding reaction. Radiolabeling of nucleic acid incorporated γ^32P ATP and polynucleotide kinase used standard procedures.
Polyamlde Synthesis and Characterization. Polyamides were synthesized by solid phase methods (Urbach & Dervan, Id.; Baird & Dervan, 1996, J. Am. Chem. Soc. 118:6141-6146) and their identity and purity verified by MALDI-TOF MS and analytical HPLC, using methods well known in the art. Fluorescent conjugates were prepared by coupling BODIPY (Molecular Probes) to the carboxyl-terminus (Best et al., 2003, Proc. Natl. Acad. Sci. U.S.A. 100:12063-12068). Binding affinities for match and mismatch sites were determined by quantitative DNase I footprinting (Trauger & Dervan, Id). A plasmid harboring six GAA repeats was constructed by cloning the oligonucleotide
in the pCR2.1 TOPO vector (Invitrogen, Calif.), and a 117 bp singly end-labeled PCR product was generated from this plasmid with the following oligonucleotides:
(§1) where the second oligonucleotide was labeled with γ-^32P ATP and polynucleotide kinase, using standard procedures, to generate a PCR product labeled on the GAA strand. A 204 bp singly end-labeled PCR product was derived from plasmid pMP142 DNA, containing 33 GAA repeats (Ohshima et al., Id.), with following oligonucleotides: […]

[2] = tested on: duplex DNA having GAA repeats ((GAA)33); experiment: Quantitative DNase I footprinting on extended GAA repeat DNA; assay type: binding
Description: The term “mismatch” in the context of polyamides or linkable units refers to replacement of one or more linkable units in a polyamide such that recognition for a specific duplex DNA pair is energetically less favorable (Dervan & Edelson, Id.; Urbach & Dervan, Id). The term “match” in the context of polyamide binding to DNA refers to a linkable unit selected according to the polyamide recognition rules of Urbach & Dervan (Id). or Dervan & Edelson (Id).
as §1

[3] = tested on: mismatch DNA sequence 5′-GGAGGAGGTGGAGGAGGA-3′ from the erbB2 (Her2-neu) promoter; experiment: DNase I footprinting on mismatch DNA; assay type: binding, human; conditions: polyamide concentrations up to 100 nM
Method: Two additional molecules, FA5 [(ImPyβ)4ImβDp] and FA6 [(ImPyβ)5ImβDp], were synthesized in order to target longer regions of GAA repeats in duplex DNA; i.e., (AAG)5 (SEQ ID NO: ______) and (AAG)6 (SEQ ID NO: ______) respectively. […] As another test for sequence specificity, footprinting experiments with FA1 and FA3 and a radiolabeled DNA fragment containing a mismatch DNA sequence 5′-GGAGGAGGTGGAGGAGGA-3′ (SEQ ID NO: ______) were performed.
The first oligonucleotide shown was radiolabeled as above to generate a PCR product labeled on the GAA strand. A 150 bp PCR product containing a (GGA•TCC)6 mismatch sequence was derived from the erbB2 (Her2-neu) promoter in human genomic DNA with the following oligonucleotides: […]

[4] = tested on: frataxin protein in GM15850 FRDA cells; experiment: Western blot of frataxin protein; assay type: cell-based, human; conditions: 1-2 μM for 7 days, SDS-PAGE and western blot
Method: Since the primary transcripts from FRDA frataxin genes contain long stretches of GAA repeat RNA sequence, it is conceivable that this RNA will not be correctly processed into mature frataxin mRNA and frataxin protein will not be produced. To test whether polyamide FA 1 leads to increased levels of frataxin protein in treated lymphoid cells, total cell extracts from polyamide-treated (1-2 μM for 7 days) and untreated GM15851 control and GM15850 FRDA cells were subjected to SDS-PAGE, and the corresponding blots were probed with anti-frataxin or anti-actin antibodies. SDS-PAGE (i.e., sodium dodecylsulfate-polyacrylamide gel electrophoresis) was conducted by standard methods well known in the art.
Western Blot Analysis. Total cell extracts were used for SDS-PAGE and western blotting with antibodies to human frataxin (Chemicon) or actin (Santa Cruz Biotechnology) as a control for cell number and protein loading. Signals were detected by chemiluminescence after probing the blot with HRP-conjugated secondary antibody (Supersignal West, Pierce). To quantify the relative levels of proteins, autoradiograms (within the linear response range of X-ray film) were converted into digital images and the signals quantified using Molecular Dynamics ImageQuant software.

[5] = tested on: sticky DNA in plasmid pRW4886, two tracts of (GAA)176; experiment: Sticky DNA disruption, EcoNI digestion and agarose gel; assay type: biochemical; conditions: 37° C., 1 hr
Method: Influence of Polyamides on Sticky DNA Conformation. Plasmid pRW4886, which contains two tracts of (GAA)176 (SEQ ID NO: ______) in a direct repeat orientation (Vetcher et al., 2002b, Id)., and forms sticky DNA, was treated with polyamides at concentrations of 0-50 μM at 37° C. for 1 hr. Restriction digestion with EcoNI following the polyamide incubation enabled visualization of the presence or absence of an EcoNI cleaved sticky DNA band that runs with decreased mobility compared to the linearized plasmid on 1% agarose gels. Quantitation was by densitometric analysis using Fluor Chem version 3.04 (Alpha Innotech Corp).
The capacity of sequence-specific polyamides to disrupt the intramolecular sticky DNA structure formed by GAA repeat tracts was investigated. Plasmids harboring the sticky DNA structure are visualized by gel electrophoresis after restriction endonuclease cleavage, by methods well known in the art. […] Plasmid pRW4886, which contains two tracts of (GAA)176 (SEQ ID NO: ______) in a direct repeat orientation (Vetcher et al., 2002b, Id.), was incubated with each of polyamides FA1, FA2, FA3 and FA4 at concentrations ranging from 0-50 μM. The polyamide-bound DNA was then digested with EcoNI and subjected to electrophoresis on 1% agarose gels to determine the amount of EcoNI cleaved sticky DNA retarded band present. Incubation of pRW4886 DNA with FA3 shifted the equilibrium from a maximum amount of sticky DNA to a complete loss of the EcoNI cleaved sticky DNA retarded band at a concentration of 50 nM. […] For FA1, a 1 μM concentration was needed to dissociate the DNA-DNA structure-forming region. […] Since sticky DNA inhibits transcription (Ohshima et al., Id.; Sakamoto et al., 2001, J. Biol. Chem. 276:27171-27177), and since the polyamides destabilize this conformation by shifting the structural equilibrium to duplex B-type DNA, it is highly likely that the increases in frataxin mRNA observed with polyamide FA1 are due to this structural transition.

[6] = (GAA)6 DNA, values in text, read-out: apparent dissociation constant (KD)
[7] = quantitative DNase I footprinting, mean and standard deviation, minimum of two determinations, read-out: Binding affinity (KD)

SMILES | Kd [1, 6] [pM] | Kd [1, 7] [pM] | concentration at 50% occupancy of the DNA ([2]; equals target site concentration in the reaction) [nM] | affinity for extended GAA repeats ([2]; several molecules bound per DNA molecule) | binding to mismatch DNA sequence [3] | increase in frataxin protein [4] | concentration needed to affect or dissociate sticky DNA [5] [µM] | reduction of binding affinity vs match polyamide ([1]; mismatch vs match polyamide (FA2 vs FA1, FA4 vs FA3))
CN(C)CCCNC(=O)CCNC(=O)c1nc(NC(=O)CCNC(=O)c2cc(NC(=O)c3nc(NC(=O)CCNC(=O)c4cc(NC(=O)c5nccn5C)cn4C)cn3C)cn2C)cn1C [FA1, ImPyβImPyβImβDp] | 100 | 110 ± 20 | ~1.5 | no loss in affinity | Neither FA1 nor FA3 bound this DNA sequence | 2-3 fold | 1 | 
CN(C)CCCNC(=O)CCNC(=O)c1cc(NC(=O)CCNC(=O)c2nc(NC(=O)c3nc(NC(=O)CCNC(=O)c4cc(NC(=O)c5nccn5C)cn4C)cn3C)cn2C)cn1C [FA2, ImPyβImImβPyβDp] | > 100000 | > 100000 |  |  |  |  | > 100 | greater than three orders of magnitude
